Measurements from publication PMC12833730, “Discovery of a First‐in‐Class Covalent Allosteric SHP1 Inhibitor with Immunotherapeutic Activity” (Angewandte Chemie (International Ed. in English), 2025).

How the values were obtained:
[1] = biological target: T1, SHP1 (Homo sapiens, UniProt P29350); test: IC50 after 10-min/60-min preincubation, DiFMUP phosphatase assay; type: biochemical; conditions: negative control analogs of M029
T1 construct: SHP1, residues 245-543; made in house; host or cells: E. coli BL21(DE3)
T1 sequence (P29350 245-543): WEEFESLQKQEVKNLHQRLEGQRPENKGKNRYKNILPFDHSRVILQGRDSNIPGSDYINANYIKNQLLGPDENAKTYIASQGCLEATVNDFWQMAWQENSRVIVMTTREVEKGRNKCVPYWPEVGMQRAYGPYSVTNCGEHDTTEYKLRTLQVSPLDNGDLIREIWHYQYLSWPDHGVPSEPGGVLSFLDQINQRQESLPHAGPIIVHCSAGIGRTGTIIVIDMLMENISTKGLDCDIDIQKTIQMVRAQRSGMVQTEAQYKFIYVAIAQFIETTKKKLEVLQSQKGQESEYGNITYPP
Text: The PTP‐catalyzed reaction involves a nucleophilic attack by the conserved active site Cys side chain on the phosphorus atom of phosphotyrosine in the substrate.^[ [53] ^] As such, the PTPs could serve as prime targets for covalent inhibition. Previously described activity‐based probes or covalent ligands for the PTPs are either phosphotyrosine isosteres or thiol‐reactive compounds that covalently modify the active site residues (including the catalytic Cys) and lack sufficient isozyme specificity.^[ [54], [55], [56], [57], [58], [59], [60], [61] ^] Inspired by the resurgence in covalent inhibitors for difficult drug targets, we set out to discover covalent SHP1 inhibitors by screening for electrophilic fragments that bind covalently to SHP1. This strategy is increasingly utilized to identify novel ligands for a target of interest.^[ [47], [62], [63] ^] We assembled a library of 4600 Cys reactive molecules from the Enamine covalent fragment collections containing 49.0% acrylamide, 38.1% chloroacetamide, 5.15% chloromethylketone, 5.20% activated nitrile, 2.10% epoxide, and 0.53% disulfide (Figure S1A). We carried out a high‐throughput biochemical fragment screening of this curated commercially available library against the SHP1 catalytic domain (residues 245–543). Each fragment (500 µM) was incubated with SHP1 (500 nM) for 30 min at room temperature before diluting the reaction 5.5‐fold with 24.45 mM para‐nitrophenyl phosphate (pNPP) to measure the residual PTP activity. This concentration of substrate was chosen to out‐compete any remaining fragment to reduce the inactivation of SHP1 during the enzymatic hydrolysis of pNPP. After a 2‐min incubation at 25 °C, the reaction was quenched by the addition of 5N NaOH, and the production of para‐nitrophenol was determined by absorbance at 405 nm. This assay format afforded a Z’‐factor of 0.70 (Figure S1B), indicating a robust screen to reliably identify hit molecules. To enhance the probability of discovering covalent ligands with inherent preference for SHP1, we also counter‐screened the same library against SHP2, the closest homolog of SHP1, and two other widely studied PTPs, PTP1B and PTPN22 (also called LYP). […] Among these, 31 were repurchased based on their observed preference for SHP1 and structural diversity, 11 of which were confirmed as potential covalent inhibitors for SHP1 based on the time dependency of their half‐maximal inhibition concentration (IC50) values determined with a 10‐min and 60‐min preincubation time, respectively (Table 1).
To further confirm the time-dependent inhibition and determine the IC50 of acquired hits, repurchased compounds from Enamine were serially diluted in a 96-well plate, followed by the addition of proteins at 200 nM. After 10-minute and 60-minute preincubation, 2 µL of the mixture was transferred into 100 µM 6,8-Difluoro-4-Methylumbelliferyl Phosphate (DiFMUP, Invitrogen, cat# D6567) at a final volume of 200 µL. The reaction was allowed to proceed for 5 minutes and quenched by the addition of 40 µl of a 160 µM solution of bpV(Phen) (Sigma-Aldrich, cat# SML0889). The fluorescence signal was measured using a CLARIOstar Plus Microplate Spectrophotometer (BMG Labtech) using excitation and emission wavelengths of 340 nm and 450 nm, respectively. Data were fitted using Prism GraphPad 10.1.1.

[2] = tested on: LCK, PLCγ and ERK1/2 phosphorylation in Jurkat T cells; test: TCR-LCK signaling immunoblot; type: cell-based; conditions: 20 µM
Procedure: (§1) Supernatants from lysed cells were reduced, treated with iodoacetamide to cap thiol residues, and digested by trypsin for bottom‐up proteomics analysis. […] LCK is the direct substrate of SHP1 and ERK1/2, and PLCγ is the downstream effector protein of LCK‐mediated TCR signaling. […] Statistical analyses were performed with Graphpad Prism software 10.4.2 through the one‐way ANOVA test using Turkey post‐hoc comparison. ****p < 0.0001 was considered significant.
(§2) To further confirm M029 cellular target engagement, we investigated the effect of M029 on T cell function. SHP1 plays a negative role in T cells, and deletion of SHP1 in T cells lowers the activation threshold and enhances antitumor immunity.^[ [30], [31], [32], [33] ^] Mechanistically, SHP1 attenuates T cell receptor (TCR) signaling via dephosphorylation of the lymphocyte‐specific protein tyrosine kinase LCK.^[ [31], [84], [85], [86] ^] T cell activation leads to increased expression and secretion of interleukin 2 (IL‐2)^[ [87] ^] while the removal of SHP1 in T cells enhances IL‐2 production, cell proliferation, and cytolysis capacity.^[ [30], [32] ^] Accordingly, we sought to assess the impact of targeting SHP1 with M029 on TCR‐LCK signaling and T cell activation. […] M029 also dose‐dependently promoted IL‐2 production (Figure 4c). […] These findings corroborate that the observed increase in LCK phosphorylation and its downstream signaling indeed resulted from SHP1 inhibition by M029.
Immunoblotting: Cultured cells were lysed with ice-cold lysis buffer (50 mM Tris, pH 8.0, 150 mM NaCl, 10% Glycerol, 1% Triton-X-100) supplied with phosphatase inhibitor (Bimake) and protease inhibitor mixture (Roche Applied Science). Equal amounts of protein were resolved by SDS-PAGE, transferred to a nitrocellulose membrane, and subjected to immunoblotting. […]

[3] = tested on: IL-2 in Jurkat T cells; test: IL-2 mRNA / production; type: cell-based; conditions: 20 µM
Procedure: as §1, §2

[4] = biological target: T1, SHP1; test: Vanadate protection jump-dilution experiment; type: biochemical; conditions: 500 µM sodium orthovanadate, 30 min
Procedure: To further understand the mode of M029 action and ascertain whether M029 binds the SHP1 active site or a yet undefined novel site in SHP1, we performed a vanadate (VO4 ^3−) protection experiment. Vanadate is a reversible and competitive PTP inhibitor,^[ [76], [77] ^] and thus excessive vanadate would be expected to fully occupy the PTP active site and prevent covalent modifications of residues within the active site pocket. In this assay, SHP1 was co‐incubated with 30 µM M029 and 500 µM sodium orthovanadate or vehicle control for 30 min. The SHP1‐inhibitor complex was then rapidly diluted 100‐fold into a buffered solution containing 10 mM pNPP, and immediately, the absorbance at 405 nm was monitored over time to determine the remaining phosphatase activity.

| SHP1 inhibitory activity (in words) [1] | SHP1 activity after 100-fold dilution of vanadate complex [4] | SMILES | phosphorylation levels of LCK, PLCγ, and ERK1/2 [2] | IL-2 secretion [3] |
| --- | --- | --- | --- | --- |
| loses the ability to inactivate SHP1 |  | CC(=O)Nc1ccc(S(=O)(=O)Nc2sccc2C#N)cc1 [M054, N-(4-(N-(3-cyanothiophen-2-yl)sulfamoyl)phenyl)acetamide] | neither impacted | neither impacted |
| inactive against SHP1 |  | O=C(CCl)Nc1ccccc1 [PhClAc, reference compound] | neither impacted | neither impacted |
|  | fully recovered activity | [Na+].[Na+].[Na+].[O]=[V]([O-])([O-])[O-] [sodium orthovanadate, reference compound] |  |  |
